In US9957263B2, “Bromodomain inhibitors” (AbbVie Inc., priority 2013, dated 2018):

Columns and labels:
BRD4 (BDI_K57-E168) = BRD4 (BDI_K57-E168) (Homo sapiens (Human), UniProt O60885); test: TR-FRET bromodomain binding assay, BRD4 first bromodomain; conditions: His-tagged BD1, Alexa647-labeled probe 100 nM
Summary of the method: (§1)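 Read-out: TR-FRET ratio after 1 h at room temperature, normalized to controls and fitted for IC50, then converted to Ki. Reaction held 8 nM His-tagged domain, 1 nM Eu-anti-His antibody, Alexa647 probe (BDI 100 nM; BDII 30 nM) and test compound in 2% DMSO.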

BRD4 (BDII_E352-M457) = BRD4 (BDII_E352-M457) (Homo sapiens (Human), UniProt O60885); test: TR-FRET bromodomain binding assay, BRD4 second bromodomain; conditions: His-tagged BD2, Alexa647-labeled probe 30 nM
Summary of the method: as §1

| Structure (SMILES) | Ki (BRD4 (BDI_K57-E168)) [nM] | Ki (BRD4 (BDII_E352-M457)) [nM] |
| --- | --- | --- |
| CCNC(=O)c1cc2c(-c3ccc(C(=O)N(CC(=O)NC)Cc4ccccn4)cc3Oc3c(C)cccc3C)cn(C)c(=O)c2[nH]1 [Example 153, 4-[2-(2,6-dimethylphenoxy)-4-{[2-(methylamino)-2-oxoethyl](pyridin-2-ylmethyl)carbamoyl}phenyl]-N-ethyl-6-methyl-7-oxo-6,7-dihydro-1H-pyrrolo[2,3-c]pyridine-2-carboxamide] | 1040 | 2.61 |
| CCNC(=O)c1cc2c(-c3cc(S(=O)(=O)CC)ccc3Oc3c(C)cccc3CCc3ccccc3)cn(C)c(=O)c2[nH]1 [Example 148, N-ethyl-4-{5-(ethylsulfonyl)-2-[2-methyl-6-(2-phenylethyl)phenoxy]phenyl}-6-methyl-7-oxo-6,7-dihydro-1H-pyrrolo[2,3-c]pyridine-2-carboxamide] | 5720 | 7.02 |
| CC(=O)Nc1ccc(CN2CCC(Nc3ccc(S(C)(=O)=O)cc3-c3cn(C)c(=O)c4[nH]ccc34)CC2)cc1 [Example 87, N-{4-[(4-{[2-(6-methyl-7-oxo-6,7-dihydro-1H-pyrrolo[2,3-c]pyridin-4-yl)-4-(methylsulfonyl)phenyl]amino}piperidin-1-yl)methyl]phenyl}acetamide] | 21 | 34 |
| CCNC(=O)c1cc2c(-c3cc(S(=O)(=O)CC)ccc3Oc3c(C)cccc3Cn3ccnc3)cn(C)c(=O)c2[nH]1 [Example 150, N-ethyl-4-{5-(ethylsulfonyl)-2-[2-(1H-imidazol-1-ylmethyl)-6-methylphenoxy]phenyl}-6-methyl-7-oxo-6,7-dihydro-1H-pyrrolo[2,3-c]pyridine-2-carboxamide] | 2680 | 73.9 |
| Cn1cc(-c2cc(S(C)(=O)=O)ccc2Oc2cccc(C(=O)NCCCN3CCCC3=O)c2)c2cc[nH]c2c1=O [Example 27, 3-[2-(6-methyl-7-oxo-6,7-dihydro-1H-pyrrolo[2,3-c]pyridin-4-yl)-4-(methylsulfonyl)phenoxy]-N-[3-(2-oxopyrrolidin-1-yl)propyl]benzamide] | 26 | 11 |
| CCS(=O)(=O)Nc1cc(-c2cn(C)c(=O)c3[nH]ccc23)c(Oc2ccc(F)cc2F)cc1CN1CCCCC1 [Example 3, N-[4-(2,4-difluorophenoxy)-5-(6-methyl-7-oxo-6,7-dihydro-1H-pyrrolo[2,3-c]pyridin-4-yl)-2-(piperidin-1-ylmethyl)phenyl]ethanesulfonamide] | 88 | 2.8 |
| Cn1cc(-c2cc(S(C)(=O)=O)ccc2Oc2cccc(NCc3ccccc3C#N)c2)c2cc[nH]c2c1=O [Example 71, 2-[({3-[2-(6-methyl-7-oxo-6,7-dihydro-1H-pyrrolo[2,3-c]pyridin-4-yl)-4-(methylsulfonyl)phenoxy]phenyl}amino)methyl]benzonitrile] | 33 | 19 |
| CCNC(=O)c1cc2c(-c3cc(S(=O)(=O)CC)ccc3Oc3c(C)cccc3CN3CCC3=O)cn(C)c(=O)c2[nH]1 [Example 157, N-ethyl-4-[5-(ethylsulfonyl)-2-{2-methyl-6-[(2-oxoazetidin-1-yl)methyl]phenoxy}phenyl]-6-methyl-7-oxo-6,7-dihydro-1H-pyrrolo[2,3-c]pyridine-2-carboxamide] | 387 | 16.9 |
| Cc1cc(-c2ccc(-c3cn(C)c(=O)c4[nH]ccc34)c(OCC3CC3)c2)[nH]n1 [Example 1, 4-[2-(cyclopropylmethoxy)-4-(3-methyl-1H-pyrazol-5-yl)phenyl]-6-methyl-1,6-dihydro-7H-pyrrolo[2,3-c]pyridin-7-one] | 26 | 55 |
| CCNC(=O)c1cc2c(-c3ccc(C(=O)N(CCN4CCSCC4)c4ccc(Cl)c(Cl)c4)cc3Oc3c(C)cccc3C)cn(C)c(=O)c2[nH]1 [Example 162, 4-[4-{(3,4-dichlorophenyl)[2-(thiomorpholin-4-yl)ethyl]carbamoyl}-2-(2,6-dimethylphenoxy)phenyl]-N-ethyl-6-methyl-7-oxo-6,7-dihydro-1H-pyrrolo[2,3-c]pyridine-2-carboxamide] | > 12700 | 88.6 |

Stronger by Ki (BRD4 (BDI_K57-E168)), values ahead:

| Ki (BRD4 (BDI_K57-E168)) [nM] | Ki (BRD4 (BDII_E352-M457)) [nM] | Structure (SMILES) |
| --- | --- | --- |
| 17 | 21 | CN1CCN(CC(=O)N2CCC(Nc3ccc(S(C)(=O)=O)cc3-c3cn(C)c(=O)c4[nH]ccc34)CC2)CC1 [Example 96, 6-methyl-4-[2-({1-[(4-methylpiperazin-1-yl)acetyl]piperidin-4-yl}amino)-5-(methylsulfonyl)phenyl]-1,6-dihydro-7H-pyrrolo[2,3-c]pyridin-7-one] |
| 16 | 6.5 | Cc1ccc(CNc2cccc(Oc3ccc(S(C)(=O)=O)cc3-c3cn(C)c(=O)c4[nH]ccc34)c2)c(C)c1 [Example 70, 4-[2-{3-[(2,4-dimethylbenzyl)amino]phenoxy}-5-(methylsulfonyl)phenyl]-6-methyl-1,6-dihydro-7H-pyrrolo[2,3-c]pyridin-7-one] |
| 16 | 3.3 | CN(C)c1cccc2c(S(=O)(=O)Nc3cccc(Oc4ccc(S(C)(=O)=O)cc4-c4cn(C)c(=O)c5[nH]ccc45)c3)cccc12 [Example 45, 5-(dimethylamino)-N-{3-[2-(6-methyl-7-oxo-6,7-dihydro-1H-pyrrolo[2,3-c]pyridin-4-yl)-4-(methylsulfonyl)phenoxy]phenyl}naphthalene-1-sulfonamide] |
| 15.9 | 87 | Cc1cc(C)n(C2CN(Cc3cc4c(-c5cc(S(C)(=O)=O)ccc5Oc5ccc(F)cc5F)cn(C)c(=O)c4[nH]3)C2)n1 [Example 129, 4-[2-(2,4-difluorophenoxy)-5-(methylsulfonyl)phenyl]-2-{[3-(3,5-dimethyl-1H-pyrazol-1-yl)azetidin-1-yl]methyl}-6-methyl-1,6-dihydro-7H-pyrrolo[2,3-c]pyridin-7-one] |
| 15.8 | 93.8 | Cn1cc(-c2cc(S(C)(=O)=O)ccc2Oc2ccc(F)cc2F)c2cc(CN3CCOCC3c3ccco3)[nH]c2c1=O (centres unmarked) [Example 127, 4-[2-(2,4-difluorophenoxy)-5-(methylsulfonyl)phenyl]-2-{[3-(furan-2-yl)morpholin-4-yl]methyl}-6-methyl-1,6-dihydro-7H-pyrrolo[2,3-c]pyridin-7-one] |
| 12 | 28 | Cn1cc(-c2cc(S(C)(=O)=O)ccc2NC2CCN(C(=O)CCN3CCOCC3)CC2)c2cc[nH]c2c1=O [Example 99, 6-methyl-4-[5-(methylsulfonyl)-2-({1-[3-(morpholin-4-yl)propanoyl]piperidin-4-yl}amino)phenyl]-1,6-dihydro-7H-pyrrolo[2,3-c]pyridin-7-one] |
| 11 | 5.1 | Cn1cc(-c2cc(S(C)(=O)=O)ccc2Oc2cccc(NS(=O)(=O)c3ccc(F)cc3)c2)c2cc[nH]c2c1=O [Example 41, 4-fluoro-N-{3-[2-(6-methyl-7-oxo-6,7-dihydro-1H-pyrrolo[2,3-c]pyridin-4-yl)-4-(methylsulfonyl)phenoxy]phenyl}benzenesulfonamide] |
| 6 | 5.8 | Cn1cc(-c2cc(S(C)(=O)=O)ccc2NC2CCN(S(=O)(=O)Cc3ccccc3)CC2)c2cc[nH]c2c1=O [Example 101, 4-[2-{[1-(benzylsulfonyl)piperidin-4-yl]amino}-5-(methylsulfonyl)phenyl]-6-methyl-1,6-dihydro-7H-pyrrolo[2,3-c]pyridin-7-one] |
| 5.2 | 3.4 | COCCNc1cccc(Oc2ccc(S(C)(=O)=O)cc2-c2cn(C)c(=O)c3[nH]ccc23)c1 [Example 64, 4-[2-{3-[(2-methoxyethyl)amino]phenoxy}-5-(methylsulfonyl)phenyl]-6-methyl-1,6-dihydro-7H-pyrrolo[2,3-c]pyridin-7-one] |
| 5.1 | 1.9 | Cn1cc(-c2cc(S(C)(=O)=O)ccc2Oc2cccc(NS(=O)(=O)Cc3ccccc3)c2)c2cc[nH]c2c1=O [Example 38, N-{3-[2-(6-methyl-7-oxo-6,7-dihydro-1H-pyrrolo[2,3-c]pyridin-4-yl)-4-(methylsulfonyl)phenoxy]phenyl}-1-phenylmethanesulfonamide] |
| 4.9 | 2.1 | CC(=O)c1ccc(S(=O)(=O)Nc2cccc(Oc3ccc(S(C)(=O)=O)cc3-c3cn(C)c(=O)c4[nH]ccc34)c2)cc1 [Example 44, 4-acetyl-N-{3-[2-(6-methyl-7-oxo-6,7-dihydro-1H-pyrrolo[2,3-c]pyridin-4-yl)-4-(methylsulfonyl)phenoxy]phenyl}benzenesulfonamide] |
| 4.3 | 2.8 | Cn1cc(-c2cc(S(C)(=O)=O)ccc2Oc2cccc(NCc3ccccc3F)c2)c2cc[nH]c2c1=O [Example 67, 4-[2-{3-[(2-fluorobenzyl)amino]phenoxy}-5-(methylsulfonyl)phenyl]-6-methyl-1,6-dihydro-7H-pyrrolo[2,3-c]pyridin-7-one] |
| 4.3 | 1.4 | CN(C)CCCOc1ccc(CNc2cccc(Oc3ccc(S(C)(=O)=O)cc3-c3cn(C)c(=O)c4[nH]ccc34)c2)cc1 [Example 74, 4-{2-[3-({4-[3-(dimethylamino)propoxy]benzyl}amino)phenoxy]-5-(methylsulfonyl)phenyl}-6-methyl-1,6-dihydro-7H-pyrrolo[2,3-c]pyridin-7-one] |
| 3.1 | 1.9 | Cn1cc(-c2cc(S(C)(=O)=O)ccc2Oc2cccc(C(=O)NCCN3CCCC3)c2)c2cc[nH]c2c1=O [Example 35, 3-[2-(6-methyl-7-oxo-6,7-dihydro-1H-pyrrolo[2,3-c]pyridin-4-yl)-4-(methylsulfonyl)phenoxy]-N-[2-(pyrrolidin-1-yl)ethyl]benzamide] |
| 1.3 | 3.3 | CCS(=O)(=O)c1ccc(OCC2CC2(F)F)c(-c2cn(C)c(=O)c3[nH]c(C#CCN(C)C)cc23)c1 (centres unmarked) [Example 63, 4-{2-[(2,2-difluorocyclopropyl)methoxy]-5-(ethylsulfonyl)phenyl}-2-[3-(dimethylamino)prop-1-yn-1-yl]-6-methyl-1,6-dihydro-7H-pyrrolo[2,3-c]pyridin-7-one] |
